Assay results as given in PubChem BioAssay AID330 (DTP/NCI, 2004).
“And” between values parts separate entries of the source, which are not always exact repeats. Identical values can stand only once. Inconclusive results and toxic doses are left out. The calls were made as follows: active = survival T/C of 150% or more; inactive = T/C below 125% in these data.

Tested on: P388 leukemia ip, CD2F1 mice, survival T/C
Assay: NCI In Vivo Anticancer Drug Screen. Data for tumor model P388 Leukemia (intraperitoneal) in CD2F1 (CDF1) mice
Conditions: endpoint: median survival time, higher = longer survival
Method in brief: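 Mice carrying the transplanted tumor received test compound or vehicle. Survival was recorded in each group, and the value is the treated-group measurement divided by that of the vehicle-treated control group.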

[1] = dose: 50.0 mg/kg/injection, schedule: Q01DX009 (ip), vehicle: saline with Tween-80
[2] = dose: 100.0 mg/kg/injection, schedule: Q01DX009 (ip), vehicle: saline with Tween-80
[3] = dose: 6.25 mg/kg/injection, schedule: Q01DX009 (ip), vehicle: water
[4] = dose: 12.5 mg/kg/injection, schedule: Q01DX009 (ip), vehicle: water
[5] = dose: 50.0 mg/kg/injection, schedule: Q04DX003 (ip), vehicle: saline
[6] = dose: 100.0 mg/kg/injection, schedule: Q04DX003 (ip), vehicle: saline
[7] = dose: 200.0 mg/kg/injection, schedule: Q04DX003 (ip), vehicle: saline
[8] = dose: 50.0 mg/kg/injection, schedule: Q01DX009 (ip), vehicle: saline
[9] = dose: 60.0 mg/kg/injection, schedule: Q01DX005 (ip), vehicle: saline with Tween-80
[10] = dose: 120.0 mg/kg/injection, schedule: Q01DX005 (ip), vehicle: saline with Tween-80
[11] = dose: 240.0 mg/kg/injection, schedule: Q01DX005 (ip), vehicle: saline with Tween-80
[12] = dose: 50.0 mg/kg/injection, schedule: Q01DX009 (ip), vehicle: Klucel (hydroxypropylcellulose) (HPC)
[13] = dose: 100.0 mg/kg/injection, schedule: Q01DX009 (ip), vehicle: Klucel (hydroxypropylcellulose) (HPC)

Measured: T/C

[Cl][Pt+2][Cl].[NH-]c1ccc([N+](=O)[O-])cc1[NH-]
inactive: dose: 3.12 mg/kg/injection, schedule: Q04DX002 (ip), vehicle: saline with Tween-80 100 % of control | dose: 6.25 mg/kg/injection, schedule: Q04DX002 (ip), vehicle: saline with Tween-80 110 % of control and 113 % of control | dose: 12.5 mg/kg/injection, schedule: Q04DX002 (ip), vehicle: saline with Tween-80 115 % of control and 118 % of control | dose: 25.0 mg/kg/injection, schedule: Q04DX002 (ip), vehicle: saline with Tween-80 123 % of control | dose: 50.0 mg/kg/injection, schedule: Q04DX002 (ip), vehicle: saline with Tween-80 117 % of control

CCOc1cc2c3c(c(C)cc2cn1)CCC3=O
inactive: dose: 6.25 mg/kg/injection, schedule: Q01DX009 (ip), vehicle: distilled water + Tween-80 96 % of control | dose: 12.5 mg/kg/injection, schedule: Q01DX009 (ip), vehicle: distilled water + Tween-80 100 % of control | dose: 25.0 mg/kg/injection, schedule: Q01DX009 (ip), vehicle: distilled water + Tween-80 114 % of control | dose: 50.0 mg/kg/injection, schedule: Q01DX009 (ip), vehicle: distilled water + Tween-80 98 % of control and 96 % of control | dose: 100.0 mg/kg/injection, schedule: Q01DX009 (ip), vehicle: distilled water + Tween-80 115 % of control and 87 % of control | dose: 200.0 mg/kg/injection, schedule: Q01DX009 (ip), vehicle: distilled water + Tween-80 118 % of control

O=[N+]([O-])c1ccc(SC2=NCCCN2)c(Cl)c1
inactive: [1] 102 % of control | [2] 100 % of control | dose: 200.0 mg/kg/injection, schedule: Q01DX009 (ip), vehicle: saline with Tween-80 105 % of control

CCOC(=O)/C(C#N)=C/Nc1ccncc1
inactive: [1] 95 % of control | [2] 87 % of control

O=C1c2cccc([N+](=O)[O-])c2C(=O)N1CC[P+](c1ccccc1)(c1ccccc1)c1ccccc1
inactive: dose: 0.78 mg/kg/injection, schedule: Q01DX009 (ip), vehicle: water 97 % of control | dose: 1.56 mg/kg/injection, schedule: Q01DX009 (ip), vehicle: water 100 % of control | dose: 3.13 mg/kg/injection, schedule: Q01DX009 (ip), vehicle: water 94 % of control | [3] 97 % of control | [4] 95 % of control | dose: 25.0 mg/kg/injection, schedule: Q01DX009 (ip), vehicle: water 100 % of control | dose: 50.0 mg/kg/injection, schedule: Q01DX009 (ip), vehicle: water 109 % of control | dose: 100.0 mg/kg/injection, schedule: Q01DX009 (ip), vehicle: water 107 % of control

CC1NC(C(=O)O)Cc2c1[nH]c1ccccc21 (stereo unspecified)
inactive: dose: 25.0 mg/kg/injection, schedule: Q01DX009 (ip), vehicle: suspension in saline 105 % of control | dose: 50.0 mg/kg/injection, schedule: Q01DX009 (ip), vehicle: suspension in saline 105 % of control | [5] 100 % of control | dose: 100.0 mg/kg/injection, schedule: Q01DX009 (ip), vehicle: suspension in saline 102 % of control | [6] 100 % of control | [7] 102 % of control

CC1CCN(P(=O)(N(C)C)N(C)C)CC1
inactive: [8] 98 % of control | dose: 100.0 mg/kg/injection, schedule: Q01DX009 (ip), vehicle: saline 96 % of control | dose: 200.0 mg/kg/injection, schedule: Q01DX009 (ip), vehicle: saline 88 % of control

O=C1CSC(c2c(Cl)cccc2Cl)N1c1nncs1 (stereo unspecified)
inactive: [9] 111 % of control | [10] 102 % of control | [11] 98 % of control

CC1(C)OCC(C2OC3OC(C)(C)OC3C2(O)/C(N)=N/O)O1 (stereo unspecified)
inactive: dose: 100.0 mg/kg/injection, schedule: Q04DX002 (ip), vehicle: saline 103 % of control | dose: 200.0 mg/kg/injection, schedule: Q04DX002 (ip), vehicle: saline 112 % of control | dose: 400.0 mg/kg/injection, schedule: Q04DX002 (ip), vehicle: saline 122 % of control

[CH3][Ge]([CH3])([Cl])[c]1cc[c]([Ge]([CH3])([CH3])[Cl])cc1
inactive: dose: 3.12 mg/kg/injection, schedule: Q01DX009 (ip), vehicle: saline 96 % of control | dose: 6.25 mg/kg/injection, schedule: Q01DX009 (ip), vehicle: saline 94 % of control | dose: 12.5 mg/kg/injection, schedule: Q01DX009 (ip), vehicle: saline 113 % of control and 92 % of control | [8] 110 % of control | [5] 118 % of control | [6] 89 % of control

N#Cc1c(Cl)nsc1-c1ccc([N+](=O)[O-])cc1
inactive: [12] 119 % of control | [13] 92 % of control | dose: 200.0 mg/kg/injection, schedule: Q01DX009 (ip), vehicle: Klucel (hydroxypropylcellulose) (HPC) 103 % of control

COC1C(C2CC(=O)NC(=O)C2)OC2OC(C)(C)OC21 (stereo unspecified)
inactive: dose: 50.0 mg/kg/injection, schedule: Q01DX005 (ip), vehicle: saline with Tween-80 104 % of control | dose: 100.0 mg/kg/injection, schedule: Q01DX005 (ip), vehicle: saline with Tween-80 107 % of control | dose: 200.0 mg/kg/injection, schedule: Q01DX005 (ip), vehicle: saline with Tween-80 104 % of control

O=NNc1cccnc1
inactive: dose: 3.12 mg/kg/injection, schedule: Q01DX009 (ip), vehicle: water 108 % of control | [3] 101 % of control and 105 % of control | [4] 107 % of control and 110 % of control

CCOc1nc(N)nc(C)c1N=Nc1ccc(Cl)cc1
inactive: dose: 60.0 mg/kg/injection, schedule: Q01DX005 (ip), vehicle: Klucel + Tween-80 100 % of control | dose: 120.0 mg/kg/injection, schedule: Q01DX005 (ip), vehicle: Klucel + Tween-80 101 % of control

CN1C2=NCCN2C(=O)c2cc(Cl)ccc21
inactive: [12] 105 % of control | [13] 98 % of control

N#CNC(=NC12CC3CC(CC(C3)C1)C2)Nc1ccncc1
inactive: dose: 100.0 mg/kg/injection, schedule: Q04DX002 (ip), vehicle: saline with Tween-80 100 % of control | dose: 400.0 mg/kg/injection, schedule: Q04DX002 (ip), vehicle: saline with Tween-80 109 % of control

COc1cc(/C=C/C(C)=N/NC(N)=O)cc(OC)c1OC
inactive: dose: 30.0 mg/kg/injection, schedule: Q01DX005 (ip), vehicle: Klucel (hydroxypropylcellulose) (HPC) 103 % of control | dose: 60.0 mg/kg/injection, schedule: Q01DX005 (ip), vehicle: Klucel (hydroxypropylcellulose) (HPC) 100 % of control | dose: 120.0 mg/kg/injection, schedule: Q01DX005 (ip), vehicle: Klucel (hydroxypropylcellulose) (HPC) 103 % of control | dose: 240.0 mg/kg/injection, schedule: Q01DX005 (ip), vehicle: Klucel (hydroxypropylcellulose) (HPC) 104 % of control

C=CC(=O)NC(C(=O)O)C(C)C (stereo unspecified)
inactive: dose: 50.0 mg/kg/injection, schedule: Q01DX005 (ip), vehicle: saline 97 % of control | dose: 100.0 mg/kg/injection, schedule: Q01DX005 (ip), vehicle: saline 97 % of control | dose: 200.0 mg/kg/injection, schedule: Q01DX005 (ip), vehicle: saline 100 % of control

C1=C[N]2c3c4c(ccc3=C1)=CC=C[N]4[Ga]2[c]1ccccc1
inactive: dose: 6.25 mg/kg/injection, schedule: Q01DX009 (ip), vehicle: Klucel (hydroxypropylcellulose) (HPC) 103 % of control | dose: 12.5 mg/kg/injection, schedule: Q01DX009 (ip), vehicle: Klucel (hydroxypropylcellulose) (HPC) 106 % of control | dose: 25.0 mg/kg/injection, schedule: Q01DX009 (ip), vehicle: Klucel (hydroxypropylcellulose) (HPC) 118 % of control

CCCC1(CCC)c2ccccc2C(Cl)(CCl)c2ccccc21
inactive: dose: 12.5 mg/kg/injection, schedule: Q01DX009 (ip), vehicle: other 103 % of control | dose: 25.0 mg/kg/injection, schedule: Q01DX009 (ip), vehicle: other 106 % of control | dose: 50.0 mg/kg/injection, schedule: Q01DX009 (ip), vehicle: other 109 % of control | dose: 100.0 mg/kg/injection, schedule: Q01DX009 (ip), vehicle: other 107 % of control | dose: 200.0 mg/kg/injection, schedule: Q01DX009 (ip), vehicle: other 109 % of control

CC1CCCC2CC3CCCCC3OCN12 (stereo unspecified)
inactive: [6] 109 % of control | [7] 104 % of control | dose: 400.0 mg/kg/injection, schedule: Q04DX003 (ip), vehicle: saline 104 % of control

COc1ccc(C(=O)CC2(O)C(=O)Nc3ccccc32)cc1O (stereo unspecified)
inactive: [9] 105 % of control | [10] 102 % of control | [11] 102 % of control
